# Results as given in PMC6630837 (Pharmaceuticals, 2019).
# Entries after “also recorded” stand apart in the source; their conditions may differ.
# Columns and labels:
# [1] = test system: SH-SY5Y human neuroblastoma cells; assay: Neuroprotection against Aβ1-42-induced toxicity, MTT cell viability assay; assay type: cell-based; details: 50 μM compound, 20 μM Aβ1-42, 24 h, 37 °C
# Description: Neuroprotective activity assays against Aβ1-42-induced toxicity. From all compounds tested in the above presented assay, the pair 8 and 19 presented the strongest neuroprotective potential, with convincing proof on the importance of the aglycone for the desired neuroprotective effects against H2O2-induced cell injury. […] Here, the MTT assay was used once again to assess cell viability of SH-SY5Y cells treated with 20 μM of Aβ1-42, in the presence of 50 μM of each compound. Similar protocols have been used to screen candidates for AD therapy. Moreover, based on the existing evidence that in situ spontaneous fibrillization of Aβ1-42 in the incubation mixture is important in the triggering of neurotoxic effects, we added the Aβ1-42 peptide fragment dissolved in DMSO to the culture medium prior to incubation, together with each compound in study. […] Even though there is published evidence that undifferentiated SH-SY5Y cells are not as sensitive to Aβ1-42-induced neurite degeneration and apoptosis as differentiated ones, with 20 μM of Aβ1-42 we were able to observe a significant decrease in cellular MTT reduction capacity, corresponding to roughly half of the cell viability rates observed in the non-treated control.
# Neuroprotective assays in human neuroblastoma (SH-SY5Y) cells. […] Differences were considered significant when P < 0.05.
# [2] = test system: SH-SY5Y neuroblastoma cells; assay: Cytotoxic activity of compounds alone, MTT cell viability assay; details: 50 μM compound alone, 24 h, 37 °C, 0.5% DMSO, SH-SY5Y
# Description: Neuroprotective assays in human neuroblastoma (SH-SY5Y) cells. SH-SY5Y cells were grown in Dulbecco’s Modified Eagle Medium (DMEM, Gibco, Life Technologies) supplemented with 10% fetal bovine serum (FBS, Biochrom GmbH) and 1% Penicillin-Streptomycin (Gibco, Life Technologies) in a humidified incubator at 37 °C, 5% CO2. For the neuroprotective activity assay, undifferentiated SGSY-5Y cells were plated onto 96-well flat-bottomed microtiter plates at a density of 1 × 10^4 cells/well in DMEM supplemented with 2% FBS and preincubated for 24 h at 37 °C, 5% CO2. Compounds (stored as 10 mM solutions in DMSO at −20 °C) were then added to achieve a final concentration of 50 μM and, after 30 min, cells were incubated in the presence or absence of 20 μM Aβ protein fragment 1-42 (Sigma-Aldrich, dissolved in DMSO and stored in 2 mM aliquots at −20 °C) or 100 μM of H2O2 (Sigma-Aldrich, dissolved to 10 mM in 0.9% NaCl aqueous solution immediately prior to the assay) overnight at 37 °C, 5% CO2. […] The following morning, 20 μL of a 5 mg/mL solution of 3-(4,5-dimethylthiazol-2-yl)-2,5-diphenyltetrazolium bromide (MTT, Sigma-Aldrich) in PBS (Gibco, Life Technologies) was added to each well and the plates were further incubated for 4 h at 37 °C, followed by the addition of DMSO (200 μL) to each well in order to dissolve the resulting formazan crystals. After 2 h incubating at 37 °C, the optical density (OD) at 540 nm (with a 620 nm reference filter) was measured in an Amersham Biosciences Biotrak II Plate Reader. The percentage of MTT reduction was determined according to Equation (1). […] Differences between experimental conditions were compared for statistical significance by one-way ANOVA followed by a Tukey’s post-test, an analysis carried out using GraphPad Prism Software (LA Jolla, CA, USA). Differences were considered significant when P < 0.05. In order to exclude direct MTT reduction, compounds were also tested in (a) the absence of cells and (b) in the absence of both cells and culture medium, using the same experimental conditions described above. (2) MTT Reduction (% of Control)=[ODsample−ODmedium/ODcell control−ODmedium] × 100 […]
# Tabl e S2. Cytotoxic activity of each compound assessed in SH-SY5Y neuroblastoma cells via an MTT cell viability assay.a Comp ound Nr. MTT reduction (% control) p-va l u e vs . untreated cell control (unpai red t-t es t) […]
# a Cells were incubated for 24 h at 37 °C, in the presence (50 μM) or absence of each compound.
# [3] = biological target: acetylcholinesterase (AChE) (Electrophorus electricus, UniProt O42275); assay: Acetylcholinesterase inhibition, Ellman's colorimetric assay; assay type: biochemical; details: 100 µM compound; read-out: AChE inhibitory efficacy (percentage of inhibition)
# Description: For cholinesterase inhibition tests (acetylcholinesterase (AChE, electrophorus
# was kept within 1.25% cuvette concentration.
# AChE and at 18.2 µM concentration for BuChE. […]
# [4] = Cell viability (MTT) assay in HepG2 cells; assay type: cell-based, human; details: human; HepG2 cells, 0.1 μM to 100 μM; read-out: IC50 (cytotoxicity)
# Description: (§1) Cell viability assay in human epithelial colorectal adenocarcinoma (Caco-2) and human liver hepatocellular (HepG2) cells. Caco-2 and HepG2 Cells were cultured in DMEM-Dulbecco’s modified Eagle’s medium (Sigma-Aldrich) supplemented with 10% (v/v) inactivated fetal bovine serum (PAA Laboratories GmbH), 2 mM L-glutamine (Sigma-Aldrich), 100 U/mL penicillin and 100 μg/mL streptomycin (Sigma-Aldrich), in a humidified incubator at 37 °C with a 5% CO2 atmosphere. Cells (3 × 10^4 cells/well) were seeded into 96-well plates and incubated at 37 °C in 5% CO2 atmosphere. After 24 h, compounds were added at different concentrations (0.1–100 μM) and incubated in the same conditions. DMSO controls were performed to evaluate a possible solvent cytotoxicity, while pure DMSO was used as a cytotoxic drug. After the established incubation time with compounds, MTT (5 mg/mL) in PBS (Sigma-Aldrich) was added (10 μL) to each well. After 3 h incubation at 37 °C, in 5% CO2, the supernatant was removed. The formazan crystals were solubilized using ethanol/DMSO (1:1) (100 μL), and the absorbance values were determined at 570 nm on the microplate reader Victor3 from PerkinElmer Life Sciences.
# [5] = test system: human liver hepatocellular (HepG2) cells; assay: Cell viability (MTT) assay in HepG2 cells; assay type: cell-based; details: at 100 μM
# Description: as §1
# Chain of acetylcholinesterase (AChE) (O42275 24-633): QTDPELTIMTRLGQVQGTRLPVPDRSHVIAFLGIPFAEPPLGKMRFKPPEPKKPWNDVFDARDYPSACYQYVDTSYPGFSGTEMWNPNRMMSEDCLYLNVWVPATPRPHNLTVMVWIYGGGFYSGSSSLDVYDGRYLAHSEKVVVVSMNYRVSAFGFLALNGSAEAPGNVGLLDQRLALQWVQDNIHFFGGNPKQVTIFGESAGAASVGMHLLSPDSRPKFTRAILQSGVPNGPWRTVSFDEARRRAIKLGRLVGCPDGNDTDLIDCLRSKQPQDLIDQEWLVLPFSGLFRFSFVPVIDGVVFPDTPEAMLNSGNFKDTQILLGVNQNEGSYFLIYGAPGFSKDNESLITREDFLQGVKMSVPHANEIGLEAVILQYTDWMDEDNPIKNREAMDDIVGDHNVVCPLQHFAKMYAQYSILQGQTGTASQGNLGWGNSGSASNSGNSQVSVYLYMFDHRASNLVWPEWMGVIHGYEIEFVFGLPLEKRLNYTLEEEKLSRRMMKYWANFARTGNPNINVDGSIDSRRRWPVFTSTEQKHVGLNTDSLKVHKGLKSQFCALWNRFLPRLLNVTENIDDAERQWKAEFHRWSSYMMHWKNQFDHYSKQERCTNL
smiles,measurement,setting,value
"O=c1cc(-c2ccc(N3CCOCC3)cc2)oc2c([C@@H]3O[C@H](CO)[C@@H](O)[C@H](O)[C@H]3O)c(O)cc(O)c12 [Compound 19, 8-(β-D-Glucopyranosyl)-5,7-dihydroxy-4′-(morpholin-4-yl)flavone]",Neuroprotective effect against Aβ1-42-induced toxicity (MTT cell viability),[1],the result with the highest significance when compared to controls; also recorded: the result with the highest significance when compared to the controls
same,Neuroprotective effect against Aβ1-42-induced toxicity (MTT cell viability),[1]; listed as 37,fully rescued
same,MTT reduction (% control),[2],138.5 ± 3.6%
same,inhibition at 100 µM,[3],18%
same,IC50,[4],≥ 100 µM
same,Cytotoxicity towards HepG2 cells,[5],did not show any cytotoxicity
